Measurements from ChEMBL document CHEMBL3507680, “University of Dundee, Gates Library screen for HepG2 cell viability”.

experiment: Human HepG2 cell viability assay in 384 well format; format: toxicity, cell-based; design: dose 125 nL, time 70.5 hour; concentration not given beside the values; conditions: HepG2 cells, read-out: Inhibition

Row | Structure (SMILES) | cytotoxicity at 70.5 h [%]
1 | Cc1c(Cl)cc(C(=O)NCCc2ncnn2C)cc1Cl | -9.97
2 | Cc1cc(C)c(C(=O)N2CCC3(CCCN(CC(C)(C)C)C3)C2)[nH]1 (centres undefined) | 15.2
3 | CN(C)C(=O)CN1C[C@@H]2CC[C@H](C1)N(C/C=C/c1ccc(F)cc1)C2 | -0.0436
4 | Cc1ccc(-c2cccc(N3CCC(NC4CCOCC4)CC3)c2)cc1 | -2.04
5 | N[C@H]1CCCN(S(=O)(=O)c2ccc(C(=O)NCC(F)F)cc2)C1 | 25.2
6 | Cc1c[nH]c(C(=O)N2CCn3nc(C(=O)NC4CC4)cc3C2)n1 | 24.5
7 | CSc1nccc(NCc2cc3n(n2)CCCN(C(=O)C2CCC2)C3)n1 | 22.4
8 | O=C(CN1CCOC1=O)N1CCc2nnc(-c3ccccc3)n2CC1 | 11.7
9 | CC(C)C1CN(C(=O)c2ccc(Cl)cn2)CCCN1CC1CC1 (centres undefined) | -6.77
10 | CNS(=O)(=O)CCNc1cc(C)nc2cc(C)nn12 | -2.52
11 | COCCCN1C(=O)CC[C@H]2CN(c3nc4ccccc4s3)CC[C@H]21 | -3.23
12 | Cc1ccc(N2CCN(C(=O)CCc3n[nH]c(C)n3)CC2=O)cc1 | -8.56
13 | CN(Cc1cc(C2CC2)[nH]n1)C(=O)C(c1cccnc1)N1CCCC1 (centres undefined) | -3.32
14 | COc1ncc(CN2CCC3(CCCN(CC4CCC4)C3)C2)cn1 (centres undefined) | -1.38
15 | CN(C)CCN(CC1CCCO1)S(=O)(=O)NCc1ccccc1 (centres undefined) | -6.41
16 | Cn1ccnc1-c1ccc(NC[C@H]2CCc3ccccc3O2)nn1 | 18
17 | Cc1nc2c(c(NCC(O)C(F)(F)F)n1)CCNCC2 (centres undefined) | 11.7
18 | CC(C)OC(=O)N1CCC(c2nnc(Cn3ccnc3)n2C)CC1 | 20.7
19 | CCN1CC(CN(C)Cc2nc(-c3ccc(F)cc3F)oc2C)CC1=O (centres undefined) | 2.47
20 | OC1(CN2CCCC2)COCCN(c2noc(-c3ccccc3)n2)C1 (centres undefined) | -11
21 | COC(=O)CC1C(=O)NCCN1c1nc2c(s1)c(C)nn2C (centres undefined) | 5.02
22 | Cc1cc(N2CCC(n3cc(CN4CCNCC4)nn3)CC2)ccn1 | 24.4

Row | Structure (SMILES) | cytotoxicity at 70.5 h [%]
23 | COCCc1ncc(CN2CCCC(C(=O)c3ccccc3)C2)cn1 (centres undefined) | -26
24 | CCOCc1nc2c(c(NC(CC)c3ccnn3C)n1)CCNCC2 (centres undefined) | 0.295
25 | Cc1ccc(CCNC(=O)CC2COCCN2S(=O)(=O)N(C)C)o1 (centres undefined) | 13.5
26 | CN1CCN(S(=O)(=O)NCC2COc3ccccc3C2)CC1 (centres undefined) | -3.52
27 | COc1ccc(CCN2CC(NCc3ncc[nH]3)CC2=O)cc1 (centres undefined) | -7.01
28 | O[C@@]1(CN2CCN(Cc3ccncc3)CC2)CCCN2CCCC[C@@H]21 | -9.72
29 | COc1cccc2c(=O)n(C3CCCNC3)cnc12 (centres undefined) | -11.4
30 | Cc1nc(C2CCN(C(=O)c3ccc(Cl)s3)CC2)cc(=O)[nH]1 | -6.29
31 | COc1ccc(C[C@@H]2CC[C@H](CN(C)C3CCN(C)CC3)O2)cc1 | -5.62
32 | COc1cccc(OCCc2nc3c(cc2C(N)=O)CCC3)c1 | 1.85
33 | CSc1ccccc1CC1CCCS(=O)(=O)C1 (centres undefined) | 3.79
34 | Cc1nonc1C1CCCN1C(=O)c1cn2ccsc2n1 (centres undefined) | -13.5
35 | c1cn(CCn2cnnc2)c(-c2cc3n(n2)CCCNC3)n1 | -5.64
36 | CC(=O)c1cc(CN2C[C@@H](CN3CCCC3)[C@@H](CO)C2)n(C)c1 | -5.11
37 | COCCc1nc(CN2CC(C)(c3ccccc3)CCC2=O)no1 (centres undefined) | -2.58
38 | COc1ccc(-n2c(CO)nc3ccccc32)cc1CO | -6.11
39 | COc1cc(F)ccc1-c1cc(N)ccn1 | -0.436
40 | CNc1cc(-c2ccc(COCCN)cc2)c2cc[nH]c2n1 | -13.6
41 | C[C@@H]1CN(Cc2nc(C(N)=O)no2)CC[C@@]1(O)C1CC1 | -14.8
42 | CCc1cc(NCCN2CCNC2=O)n2nccc2n1 | 3.72
43 | OCCC1CN(c2ncnc3[nH]cnc23)CCN1Cc1ccccc1F (centres undefined) | 5.32
44 | CNC(=O)c1ccc(CN(C(C)C)C(C)C)o1 | -4.83
